Assay results as given in PubChem BioAssay AID179 (DTP/NCI, 2004).
Activity calls are given as the source filed them.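 How the source made its calls: active means compounds giving half or more protection of infected cells from virus-caused growth loss, again on retest; inactive means the rest.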 Where a SMILES comes first, the peptide text is derived from it. The star is where a group is joined. Trt = c1ccc(C(c2ccccc2)(c2ccccc2)*)cc1; Benzhydryl = c1ccc(C(c2ccccc2)*)cc1; Cbz = O=C(OCc1ccccc1)*; Boc = CC(C)(C)OC(=O)*; OtBu = CC(C)(C)O*

Tested on: CEM cells HIV-1 protection, formazan growth assay
Assay: NCI AIDS Antiviral Assay
Settings: for IC50: measured here: growth of uninfected CEM cells
Description: The ability of compounds to protect human CEM cells from HIV-1 infection is measured as a screen for new compounds capable of inhibiting the HIV virus. Five concentrations of drug were tested on uninfected and infected cells and cell growth was measured using a soluble formazan assay. […] Compounds that provided at least 50% protection were retested. Compounds that provided at least 50% protection on retest were listed as moderately active. Compounds that reproducibly provided 100% protection were listed as confirmed active. […] Note that the inability to provide protection could be due to toxicity.

## CC(=O)OC1COC(n2c(=S)n(-c3ccccc3)c(=O)c3cc(Br)ccc32)C(OC(C)=O)C1OC(C)=O (configuration not stated)
  EC50: > 17 µM
  IC50: > 17 µM

## COc1cc(C(=O)O)ccc1OS(=O)(=O)O
  EC50: > 200 µM
  IC50: > 200 µM

## O=S(Cc1ccc2c(c1)OCO2)c1ccccc1 (configuration not stated)
  EC50: > 955 µM
  IC50: 661 µM

## c1snnc1-c1cnns1
  EC50: > 200 µM
  IC50: > 200 µM

## O=Cc1c2ccccc2n2ccc3c4ccccc4[nH]c3c12
  EC50: > 200 µM
  IC50: > 200 µM

## COC(=O)C1=C(C)N2[C@H](C(=O)O)CS[C@@]2(C)[C@H](C(=O)OC)[C@H]1c1cccc([N+](=O)[O-])c1
  EC50: > 200 µM
  IC50: 148 µM

## Cc1nnc(Nc2ccccc2)o1
  outcome: inactive

## C=CCCC(C)N(C(=O)OC(C)(C)C)S(=O)(=O)c1ccc(C)cc1 (configuration not stated)
  EC50: > 14.8 µM
  IC50: > 14.8 µM

## COc1ccc(N=c2ssc(SC)c2-c2ccccc2)cc1
  EC50: > 200 µM
  IC50: 46.8 µM

## CC[C@H](CCCC[C@H]1CC[C@@H]2CC(=O)C[C@H]12)OC
  EC50: > 200 µM
  IC50: 117 µM

## Cc1cc(C)c2c(c1)C/C(=C\c1ccccc1C(=O)O)C2=O
  outcome: inactive

## COc1cc2c(cc1Oc1c(O)c(OC)cc3c1C(C)N(C)CC3)C(C)N(C)CC2 (configuration not stated)
  EC50: > 200 µM
  IC50: > 200 µM

## S=C1c2cc(Cl)ccc2NC(=NC2CCCC2)C2CSCN12 (configuration not stated)
  EC50: > 200 µM
  IC50: 33.9 µM

## CC1(C)Oc2ccc3ccc(=S)oc3c2[C@@H](OC(=O)C23CCC(C)(C(=O)O2)C3(C)C)[C@H]1OC(=O)C12CCC(C)(C(=O)O1)C2(C)C (some centres not stated)
  EC50: 0.525 µM
  IC50: 5.62 µM

## NC(=O)c1[nH]nc(C2OC(CO)C(O)C2O)c1O (configuration not stated)
  EC50: > 955 µM
  IC50: 0.309 µM

## CC1(C)c2ccccc2C(=O)C1(Br)Cc1ccccc1 (configuration not stated)
  EC50: > 200 µM
  IC50: 9.55 µM

## O=C(Nc1ccc(Cl)cc1Cl)/C(Cl)=C1/Sc2ccccc2NC1=O
  EC50: > 6.76 µM
  IC50: > 6.76 µM

## C=Cc1c2[n-]c(c1C)/C=c1\[n-]/c(c(C)c1C=C)=C\c1[n-]c(c(CCC(=O)O)c1C)/C=c1\[n-]/c(c(C)c1CCC(=O)O)=C\2.[Fe+4]
  EC50: > 14.5 µM
  IC50: > 14.5 µM

## CC(=O)c1ccc(NC(=O)C(=O)Nn2c(=S)[nH]c3ccccc3c2=O)cc1
  EC50: > 93.3 µM
  IC50: > 93.3 µM

## CC(C)(C)OC(=O)NC(Cc1ccc(O)cc1)C(=O)NC(CCCCN)C(=O)O (stereo not drawn) (Boc-Tyr-Lys-OH; configuration not given here)
  EC50: > 200 µM
  IC50: 91.2 µM

## COc1cc(O)cc(O)c1C(=O)CC(Cl)(Cl)Cl
  EC50: > 316 µM
  IC50: 170 µM

## O=C(O)c1sccc1Cc1ccsc1
  EC50: > 200 µM
  IC50: > 200 µM

## CCN(CC)CCSc1c(C(C)=O)c(=O)n(-c2ccccc2)c(=S)n1-c1ccccc1
  EC50: > 200 µM
  IC50: 1.15 µM

## BrC1(c2ccccc2)C[n+]2c(-c3ccccc3)cc(-c3ccccc3)cc2-c2ccccc21 (configuration not stated)
  EC50: > 200 µM
  IC50: 0.741 µM

## CCCCNC(=O)OCC(C)(CCC)COC(N)=O (configuration not stated)
  EC50: > 200 µM
  IC50: 148 µM

## COc1ccc(/C=C(\Cl)c2ccc(OC)c(OC)c2)cc1OC
  EC50: 56.2 µM
  IC50: > 200 µM

## CCCOC(=O)Nc1ccc2nc(N(C)C)sc2c1
  EC50: > 245 µM
  IC50: 66.1 µM

## C#CC(O)CS(=O)(=O)c1ccccc1 (configuration not stated)
  EC50: > 100 µM
  IC50: > 100 µM

## NN1C(=O)CS/C1=N\C(=S)N/N=C1/SCC(=O)N1N
  EC50: 57.5 µM
  IC50: 85.1 µM

## COc1ccccc1NC(=O)C1=C(C)NC(C)=C(C(=O)Nc2ccccc2OC)C1c1ccco1
  outcome: inactive

## N#Cc1nc(C2=C(Cl)c3ccccc3OC2)[nH]c1C#N
  outcome: inactive

## CC(C)=CCN(N=O)c1ncnc2nc[nH]c12
  EC50: > 200 µM
  IC50: > 200 µM

## [CH3][Sn]1([CH3])[O]CC(COc2cc(Cl)c(Cl)cc2Cl)[O]1 (configuration not stated)
  EC50: > 24 µM
  IC50: 15.5 µM

## Cc1nc(-n2nc(-c3ccccc3)cc2-c2ccccc2)sc1C(=O)/C=C/c1ccc(/C=C/C(=O)c2sc(-n3nc(-c4ccccc4)cc3-c3ccccc3)nc2C)cc1
  EC50: > 22.9 µM
  IC50: > 22.9 µM

## CSc1c(C(N)=S)c(N)nn1-c1ccccc1
  EC50: > 200 µM
  IC50: 155 µM

## CN(C)CC1CCC/C(=C\c2ccc(N(C)C)cc2)C1=O (configuration not stated)
  EC50: > 200 µM
  IC50: 2.24 µM

## Nn1c(Cc2ccc([N+](=O)[O-])cc2)n[nH]c1=O
  EC50: > 200 µM
  IC50: > 200 µM

## CCOC(=O)C(C(=O)OCC)=C(N)C(Cl)(Cl)Cl
  EC50: > 200 µM
  IC50: 42.7 µM

## Oc1ccc2cc(SSc3ccc4cc(O)ccc4c3)ccc2c1
  EC50: > 200 µM
  IC50: 8.13 µM

## CC(NC(=O)CNC(=O)C(N)CO)C(=O)NC(CCC(N)=O)C(=O)NC(CCC(=O)O)C(=O)NC(C)C(=O)NC(CCCCN)C(=O)NC(CCC(=O)O)C(=O)NC(CCC(N)=O)C(=O)NC(CCCN=C(N)N)C(=O)NC(C(=O)NC(CC(N)=O)C(=O)NC(C)C(=O)NC(Cc1cnc[nH]1)C(=O)NC(CO)C(=O)O)C(C)O (configuration not stated) (H-SGAQEAKEQRTNAHS-OH; configuration not given here)
  EC50: > 100 µM
  IC50: > 100 µM

## CN1CCN(C)c2nc3ccccc3nc21
  EC50: 15.1 µM
  IC50: 87.1 µM

## CC(C)CCCC(C)C1CCC2C3CC[C@H]4C[C@@H](NC(=O)C=C(c5cc(Cl)c(O)c(C(=O)O)c5)c5cc(Cl)c(O)c(C(=O)O)c5)CC[C@]4(C)C3CC[C@]12C (some centres not stated)
  EC50: 56.2 µM
  IC50: 97.7 µM

## CN1COCc2cc3cc4c(cc3nc21)OCCO4
  EC50: > 200 µM
  IC50: 97.7 µM

## CCS(=O)(=O)CCn1cnc2c1c(=O)n(C)c(=O)n2C
  EC50: > 200 µM
  IC50: > 200 µM

## COP12(OC)NC(=O)OC1(C(F)(F)F)c1ccccc1O2 (configuration not stated)
  EC50: > 776 µM
  IC50: 537 µM

## O=Cc1cc(C(=O)Nc2ccc(/C=C/c3ccc(NC(=O)c4cc(C=O)c5cccnc5c4O)cc3S(=O)(=O)O)c(S(=O)(=O)O)c2)c(O)c2ncccc12
  EC50: 24.5 µM
  IC50: > 100 µM

## O=C(NNC(=S)Nc1ccccc1)C12CC3CC(CC(C3)C1)C2
  EC50: > 200 µM
  IC50: 34.7 µM

## CSc1ccc(NC(=O)C2c3[nH]c4ccccc4c3C3CCC(C(C)(C)C)CC3C2C(=O)O)cc1 (configuration not stated)
  EC50: > 7.76 µM
  IC50: > 7.76 µM

## CC1(C)[C@H](C(=O)O)N2C(=O)[C@@H](NS(=O)(=O)c3ccc([N+](=O)[O-])cc3)[C@H]2S1(=O)=O
  EC50: > 200 µM
  IC50: 195 µM

## Ic1ccc(SSc2ccc(I)cc2)cc1
  EC50: > 200 µM
  IC50: 6.61 µM

## O=C(O)CCSC(=O)Nc1ccccc1F
  outcome: inactive

## CN1CCC(O)(c2ccc(F)cc2)C(C(=O)c2ccc(F)cc2)C1 (configuration not stated)
  EC50: > 200 µM
  IC50: 72.4 µM

## C#CCOC(=O)c1ccc(OC(C)=O)cc1
  EC50: > 200 µM
  IC50: 191 µM

## CC1CN=C(c2ccc(NC(=O)c3ccc(C(=O)Nc4ccc(C5=NCC(C)CN5)cc4)cc3)cc2)NC1 (configuration not stated)
  EC50: > 200 µM
  IC50: 25.1 µM

## COc1ccccc1C1C2=C(COC2=O)Oc2cc3c(cc21)OCO3 (configuration not stated)
  EC50: > 200 µM
  IC50: 2.19 µM

## CCN(CCCN(CC)C(=O)N[C@@H](Cc1ccccc1)C(=O)NC)C(=O)N[C@@H](Cc1ccccc1)C(=O)NC
  EC50: > 200 µM
  IC50: > 200 µM

## CC(C)=CCC[C@@H](C)C1=C(O)C(Nc2ccccc2)=C(C)C(=O)C1=O
  EC50: > 200 µM
  IC50: 13.2 µM

## CCCCCCCCCCCCCCCCCCOc1ccc2c(c1)-c1nc-2nc2[nH]c(nc3nc(nc4[nH]c(n1)c1cc(OCCCCCCCCCCCCCCCCCC)ccc41)-c1ccc(OCCCCCCCCCCCCCCCCCC)cc1-3)c1cc(OCCCCCCCCCCCCCCCCCC)ccc21
  EC50: > 8.51 µM
  IC50: > 8.51 µM

## CC(C)(C)NC(=O)CCC1C(C(=O)NC(C)(C)C)C2(Cl)C(Cl)=C(Cl)C1(Cl)C2(Cl)Cl (configuration not stated)
  EC50: > 200 µM
  IC50: > 200 µM

## C/C=C1\CNC1C(=O)O (configuration not stated)
  EC50: > 200 µM
  IC50: > 200 µM

## CCOc1ccccc1N=NC1C(=O)N(C(=O)CC(=O)Nc2ccccc2C)N=C1C (configuration not stated)
  EC50: > 200 µM
  IC50: > 200 µM

## COc1cc(/C=C/C=C2\CC(C)C/C(=C\C=C\c3ccc(O)c(OC)c3)C2=O)ccc1O (configuration not stated)
  EC50: > 200 µM
  IC50: 1.41 µM

## O=C1c2ccccc2CCC1(Br)Cc1ccccc1 (configuration not stated)
  EC50: > 200 µM
  IC50: 20.4 µM

## CC1(c2cccc(C3CCC4(C=CC3=O)OCCO4)c2)OCCO1 (configuration not stated)
  EC50: > 200 µM
  IC50: 1.91 µM

## CC1=NN(c2ccccc2)C(=O)C1=C1SCCCS1
  EC50: > 46.8 µM
  IC50: > 46.8 µM

## CC(C)(C)OC(=O)CNC(=O)C(Cc1ccccc1)NC(=O)C(CSC(c1ccccc1)(c1ccccc1)c1ccccc1)NC(=O)CNC(=O)C(Cc1ccccc1)NC(=O)CNC(=O)C(CSC(c1ccccc1)c1ccccc1)NC(=O)C(CSC(c1ccccc1)(c1ccccc1)c1ccccc1)NC(=O)OCc1ccccc1 (configuration not stated) (Cbz-C(Trt)C(Benzhydryl)GFGC(Trt)FG-OtBu; configuration not given here)
  EC50: > 8.32 µM
  IC50: > 8.32 µM

## COc1ccc(-c2nc(-c3cnccn3)n(C/C=C/c3ccccc3)n2)cc1
  EC50: 64.6 µM
  IC50: > 200 µM

## C=CCO[C@H]1CC[C@@]2(C)C(CC[C@]3(C)C2CC=C2[C@@H]4[C@@H](C)C(C)CC[C@]4(C(=O)O)CCC23C)C1(C)C (some centres not stated)
  outcome: inactive

## COc1ccc(-c2c(N)n(-c3cccc(C(=O)O)c3)c(=O)c3cc([N+](=O)[O-])ccc23)cc1
  EC50: > 200 µM
  IC50: 129 µM

## Nn1c(CCCCCCCCc2nnc(-c3c(O)ccc4ccccc34)n2N)nnc1-c1c(O)ccc2ccccc12
  EC50: > 200 µM
  IC50: > 200 µM

## O=Nc1ccc(Br)cc1
  outcome: inactive

## NC1CCCCC1NCCNC1CCCCC1N (configuration not stated)
  EC50: > 200 µM
  IC50: 178 µM

## CC(=O)CC(=O)N1CCOC1=O
  EC50: > 200 µM
  IC50: 36.3 µM

## Cc1cc(NCCO)nc2c1ccc1ccccc12
  EC50: > 141 µM
  IC50: 22.4 µM

## CC(=O)OCC1OC(N2C(S)=C(C#N)C(c3ccco3)C(C(C)=O)=C2c2ccccc2)C(OC(C)=O)C(OC(C)=O)C1OC(C)=O (configuration not stated)
  EC50: 95.5 µM
  IC50: > 200 µM

## O=C(c1c(F)c(F)c(F)c(F)c1F)n1c(=S)n(C(=O)c2c(F)c(F)c(F)c(F)c2F)c2ccccc21
  EC50: > 100 µM
  IC50: 4.9 µM

## O=C1c2scc(-c3ccc(F)cc3)c2-n2cccc21
  EC50: > 200 µM
  IC50: 30.2 µM
